In patent US4795743A, “2'-deamino-2'-hydroxyistamycin Bo derivatives of low toxicity” (Zaidan Hojin Biseibutsu Kagaku Kenkyu Kai, priority 1986, dated 1989):

Tests used:
[1] = tested on: Staphylococcus aureus 209P; assay: Antibacterial spectrum, standard serial dilution method of Japan Society of Chemotherapy; format: cell-based; conditions: 209P, 18 h, read-out: Minimum Growth Inhibitory Concentration
[2] = tested on: Staphylococcus aureus Ap 01; assay: Antibacterial spectrum, standard serial dilution method; format: cell-based; conditions: AP01, 18 h, read-out: Minimum Growth Inhibitory Concentration
[3] = tested on: Staphylococcus epidermidis 109; assay: as above; format: cell-based; conditions: Staphylococcus epidermidis, 109, 18 h, read-out: Minimum Growth Inhibitory Concentration
Bacillus anthracis = assay: microbe, parasite or virus in culture; format: cell-based; conditions: 18 h, read-out: Minimum Growth Inhibitory Concentration
[4] = tested on: Bacillus subtilis PCI 219; assay: Antibacterial spectrum, standard serial dilution method; format: cell-based; conditions: Bacillus subtilis, PCI219, 18 h, read-out: Minimum Growth Inhibitory Concentration
[5] = tested on: Bacillus subtilis NRRL B-558; assay: as above; format: cell-based; conditions: Bacillus subtilis, NRRLB558, 18 h, read-out: Minimum Growth Inhibitory Concentration
[6] = tested on: Corynebacterium bovis 1810; assay: as above; format: cell-based; conditions: Corynebacterium bovis 1810; Muller-Hinton medium, 37° C., 18 hours; read-out: Minimum Growth Inhibitory Concentration
Escherichia coli NIHJ = assay: as above; format: cell-based; conditions: 18 h, read-out: Minimum Growth Inhibitory Concentration
[7] = tested on: Escherichia coli K-12 J5 R11-2; assay: as above; format: cell-based; conditions: K12J5R112, 18 h, read-out: Minimum Growth Inhibitory Concentration
[8] = tested on: Escherichia coli K-12 ML1630; assay: as above; format: cell-based; conditions: K12ML1630, E. coli K-12 ML1630, Muller-Hinton medium, 37° C., 18 hours, read-out: Minimum Growth Inhibitory Concentration
[9] = tested on: Escherichia coli K-12 ML1410; assay: as above; format: cell-based; conditions: K12ML1410, E. coli K-12 ML1410, Muller-Hinton medium, 37° C., 18 hours, read-out: Minimum Growth Inhibitory Concentration
[10] = tested on: Escherichia coli K-12 ML1410 R81; assay: as above; format: cell-based; conditions: K12ML1410R81, 18 h, read-out: Minimum Growth Inhibitory Concentration
[11] = tested on: Escherichia coli K-12 LA290 R55; assay: as above; format: cell-based; conditions: K12LA290R55, 18 h, read-out: Minimum Growth Inhibitory Concentration
[12] = tested on: Escherichia coli K-12 LA290 R56; assay: as above; format: cell-based; conditions: K12LA290R56, 18 h, read-out: Minimum Growth Inhibitory Concentration
Escherichia coli W677 = assay: as above; format: cell-based; conditions: W677, 18 h, read-out: Minimum Growth Inhibitory Concentration
[13] = tested on: Escherichia coli JR66/W677; assay: as above; format: cell-based; conditions: JR66/W677, 18 h, read-out: Minimum Growth Inhibitory Concentration
[14] = tested on: Escherichia coli K-12 C600 R135; assay: as above; format: cell-based; conditions: K12C600R135, E. coli K-12 C600 R135, Muller-Hinton medium, 37° C., 18 hours, read-out: Minimum Growth Inhibitory Concentration
[15] = tested on: Klebsiella Pneumoniae PCI 602; assay: as above; format: cell-based; conditions: Klebsiella Pneumoniae PCI 602; Muller-Hinton medium, 37° C., 18 hours; read-out: Minimum Growth Inhibitory Concentration
[16] = tested on: Klebsiella pneumoniae 22 = 3038; assay: as above; format: cell-based; conditions: Klebsiella pneumoniae 22 = 3038; Muller-Hinton medium, 37° C., 18 hours; read-out: Minimum Growth Inhibitory Concentration
[17] = tested on: Shigella dysernteriae JS11910; assay: as above; format: cell-based; conditions: Muller-Hinton medium, 37° C., 18 hours, read-out: Minimum Growth Inhibitory Concentration
Shigella sonnei = assay: as above; format: cell-based; conditions: Muller-Hinton medium, 37° C., 18 hours, read-out: Minimum Growth Inhibitory Concentration
Proteus vulgaris OX19 = assay: as above; format: cell-based; conditions: Proteus vulgaris, OX19, 18 h, read-out: Minimum Growth Inhibitory Concentration
Proteus rettgeri GN311 = assay: as above; format: cell-based; conditions: Providencia rettgeri, GN311, 18 h, read-out: Minimum Growth Inhibitory Concentration
Serratia marcescens = assay: as above; format: cell-based; conditions: 18 h, read-out: Minimum Growth Inhibitory Concentration
Serratia sp. SOU = assay: as above; format: cell-based; conditions: Serratia, 18 h, read-out: Minimum Growth Inhibitory Concentration
Serratia sp. 4 = assay: as above; format: cell-based; conditions: Muller-Hinton medium, 37° C., 18 hours, read-out: Minimum Growth Inhibitory Concentration
Providencia sp. Pv16 = assay: as above; format: cell-based; conditions: Providencia, SP.PV16, 18 h, read-out: Minimum Growth Inhibitory Concentration
Providencia sp. 2991 = assay: as above; format: cell-based; conditions: Providencia sp. 2991; Muller-Hinton medium, 37° C., 18 hours; read-out: Minimum Growth Inhibitory Concentration
[18] = tested on: Pseudomonas aeruguinosa No.12; assay: as above; format: cell-based, Pseudomonas aeruginosa; conditions: Muller-Hinton medium, 37° C., 18 hours, read-out: Minimum Growth Inhibitory Concentration
[19] = tested on: Pseudomonas aeruguinosa H9; assay: as above; format: cell-based, Pseudomonas aeruginosa; conditions: Pseudomonas aeruguinosa H9; Muller-Hinton medium, 37° C., 18 hours; read-out: Minimum Growth Inhibitory Concentration
[20] = tested on: Pseudomonas aeruguinosa 99; assay: as above; format: cell-based, Pseudomonas aeruginosa; conditions: Muller-Hinton medium, 37° C., 18 hours, read-out: Minimum Growth Inhibitory Concentration
[21] = tested on: Pseudomonas aeruguinosa 21-75; assay: as above; format: cell-based, Pseudomonas aeruginosa; conditions: 2175, Muller-Hinton medium, 37° C., 18 hours, read-out: Minimum Growth Inhibitory Concentration
[22] = tested on: Pseudomonas aeruguinosa PST1; assay: as above; format: cell-based, Pseudomonas aeruginosa; conditions: Muller-Hinton medium, 37° C., 18 hours, read-out: Minimum Growth Inhibitory Concentration
[23] = tested on: Pseudomonas aeruguinosa ROS 134/PU21; assay: as above; format: cell-based, Pseudomonas aeruginosa; conditions: ROS134/PU21, 18 h, read-out: Minimum Growth Inhibitory Concentration

Measured: MIC

CNCC1CCC(O)C(OC2C(N)CC(OC)C(N(C)C(=O)CCN)C2O)O1 (stereo not drawn) [Compound No. 3, 4-N-(β-Alanyl)-2'-deamino-2'-hydroxyistamycin Bo]
> 100 µg/mL: [20] | [23]
12.5 µg/mL: [6] | [8] | [9] | [11] | [15] | [16] | Providencia sp. 2991
50 µg/mL: [19]
6.25 µg/mL: [1] | [2] | [4] | [13] | Shigella sonnei | Serratia marcescens
1.56 µg/mL: Escherichia coli NIHJ
100 µg/mL: Serratia sp. 4 | [18] | [21] | [22]
25 µg/mL: [10]
3.13 µg/mL: all other assays above
